{
  "source": "patent US6989390B2",
  "about": "“Amonafide salts” (priority 2002, dated 2006)",
  "key": {"[1]": {"test": "Minimum amount of water/ethanol (1.5/4 v/v) required to dissolve the crude salt at boil (recrystallization)", "type": "physicochemical", "source_text": "For comparative purposes, between and among organic salts prepared in this manner and for the purposes of subsequent Example 3, Table 3, crude reaction products were recrystalized from water/ethanol (1.5/4 v/v per gram of salt) using the minimum amount of solvent to effect dissolution at boil.\nIn the case of succinic acid, the organic acid was dispensed as a half-equivalent in order to generate mitonafide hemisuccinate. […] Crude product that was isolated from the hydrogenation reaction mixture was analyzed for purity by high pressure liquid chromatography (HPLC) according to the conditions described in Table 1 above. The crude product was recrystallized from water/ethanol (1.5/4 v/v) using the minimum amount of solvent required to dissolve the crude product at boil, which is shown in the last column of Table 3 for each salt. The recrystallized product was then analyzed for purity by HPLC.\nThe purities of the crude salts were assessed by HPLC according to the conditions described in Table 1 above. The crude salts were then recrystallized from the minimum amount of water/ethanol (1.5/4 v/v) using the minimum amount of solvent required to dissolve the crude product at boil, which is shown in the last column of Table 3 for each salt. The resulting purified salts were again assessed for purity.\nThe hydrochloride and methanesulfonic acid salts of amonafide were prepared according to U.S. Pat. No. 5,420,137. Exemplary procedures are as follows: 3 g of crude amonafide free base, obtained as described in the previous two paragraphs, above, were dissolved under reflux in 60 ml of virtually anhydrous ethanol. Subsequently 1 ml of 35% (1 equivalent, estimated) strength hydrochloric acid was added dropwise while shaking vigorously. After cooling, the resulting crystals were filtered off and washed with 10 ml of anhydrous ethanol. The methanesulfonic acid salt was obtained using the same procedure, but replacing hydrochloric acid with 0.8 ml of methanesulfonic acid. The purity was assessed by HPLC using the conditions described in Table 1. The isolated products were then recrystallized from water/ethanol (1.5/4 v/v) using the minimum amounts of solvent required to dissolve the crude product at boil, which are shown for each salt in Table 3. The resulting purified salts were again assessed for purity.\nThe hydrochloride salt of amonafide was obtained by the method of Zee-Chang et al., U.S. Pat. No. 4,614,820. Exemplary conditions are as follows: a mixture of the hydrochloride salt of N-(dimethylaminoethyl)-3-nitro-1,8-naphthalimide and 10% palladium-on-charcoal in water was hydrogenated at room temperature under 40 lbs/in^2 of hydrogen for one hour. […] To the mixture was added 3 ml of concentrated hydrochloric acid. It was then filtered and the filtrate was evaporated to dryness under reduced pressure. The residue was triturated with 30 ml of absolute ethanol and filtered. The resulting solid was then washed with ether and dried. The purity was assessed by HPLC using the conditions described in Table 1. The crude product was then recrystallized from water/ethanol (1.5/4 v/v) using the minimum amount of solvent (40 mL/g) required to dissolve the crude product at boil. The resulting purified salts were again assessed for purity."}, "COLO205 (Colorectal)": {"system": "COLO205 (Colorectal)", "test": "Hollow Fiber in vivo anti-cancer assay", "design": "species or system mice", "procedure": "(§1) The in vivo activity was tested using the Hollow Fiber methodology developed by the National Cancer Institute: Developmental Therapeutics Branch for use in their antineoplastic agent screening program. Specifically, the anti-cancer activity of amonafide L-malate was tested by the following protocol.\n(§2) Polyvinylidene fluoride (PVDF) hollow fibers were used. The fibers were individually flushed and filled with 70% ethanol and incubated in 70% ethanol at room temperature for a minimum of 96 hour. Following three washes with deionized water, the fibers were filled with and placed into a pan of deionized water for sterilization by autoclaving. Then the fibers were stored in water at 4° C. until used.\n(§3) Mice were grouped into 4 groups, two control groups with 6 mice per group and 2 experimental groups with 3 mice per group.\n(§4) Anesthesia was induced in mice by ketamine/acepromazine/xylazine injected intraperitoneally (i.p.) For the intraperitoneal (i.p.) implants, a small incision was made through the skin and musculature of the dorsal abdominal wall, the fiber samples were inserted into the peritoneal cavity in a craniocaudal direction and the incision was closed with a skin staple. For subcutaneous (s.c.) implants, a small skin incision was made at the nape of the neck to allow insertion of an 11 gauge tumor implant trocar. The trocar, containing the hollow fiber samples, was inserted caudally through the subcutaneous tissues and the fibers were deposited during withdrawal of the trocar. The skin incision was closed with a skin staple. Each mouse was host of 6 samples, representing 3 tumor cells lines each of which was cultured in the 2 physiologic compartments (i.p. and s.c.).\n(§5) On the day following the last drug injection, the animals were sacrificed and the hollow fibers extracted. The hollow fibers were then subjected to the stable endpoint MTT assay as described in Example 5. The optical density of each sample is determined spectrophotometrically at 540 nm and the mean of each treatment group is calculated. The percent net growth for each cell line in each treatment group is calculated as described in Example 5 and compared to the percent net growth in the vehicle treated controls (Group B) using the formula below to determine the percent growth inhibition:\n(§6) % growth inhibition=(Net GrowthControl−Net GrowthTreated)/Net GrowthControl)*100"}, "H23 (Lung)": {"system": "H23 (Lung)", "test": "Hollow Fiber in vivo anti-cancer assay", "design": "species or system mice", "procedure": "as §1, §2, §3, §4, §5, §6"}, "MCF-7 (Breast)": {"system": "MCF-7 (Breast)", "test": "Hollow Fiber in vivo anti-cancer assay", "design": "species or system mice", "procedure": "as §1, §2, §3, §4, §5, §6"}, "MDA-231 (Breast)": {"system": "MDA-231 (Breast)", "test": "Hollow Fiber in vivo anti-cancer assay", "design": "species or system mice", "procedure": "as §1, §2, §3, §4, §5, §6"}, "PC3 (Prostate)": {"system": "PC3 (Prostate)", "test": "Hollow Fiber in vivo anti-cancer assay", "design": "species or system mice", "conditions": "for % Growth Inhibition: 29.4 mg/kg i.p. once daily days 3-8", "procedure": "as §1, §2, §3, §4, §5, §6"}},
  "data": [
    {"smiles": "CN(C)CCN1C(=O)c2cccc3cc(N)cc(c23)C1=O.O=C(O)C[C@H](O)C(=O)O", "note": "[Amonafide Malate]", "values": [
      {"measurement": "Solvent", "setting": "[1]; minimum water/ethanol (1.5/4 v/v) to dissolve crude product at boil, salt made by the method in column 2", "result": 7.5, "unit": "mL/g"},
      {"measurement": "recrystallization volume for purification, malate compared with HCl", "setting": "[1]; water/ethanol 1.5/4 v/v", "result": 5, "unit": "times smaller"},
      {"measurement": "percent growth inhibition (text summary of Tables 6-8)", "setting": "COLO205 (Colorectal); COLO205 (colorectal cancer)", "result": "Significant percent growth inhibition"},
      {"measurement": "% Growth Inhibition", "setting": "COLO205 (Colorectal); COLO205, I.P. fibers, 15 mg/kg i.p. twice-daily", "result": 82, "unit": "%"},
      {"measurement": "% Growth Inhibition", "setting": "COLO205 (Colorectal); COLO205, I.P. fibers, 29 mg/kg i.p. twice-daily", "result": 98, "unit": "%"},
      {"measurement": "% Growth Inhibition", "setting": "COLO205 (Colorectal); COLO205, IP, 29.4 mg/kg i.p. once daily days 3-8", "result": 84.6, "unit": "%"},
      {"measurement": "% Growth Inhibition", "setting": "COLO205 (Colorectal); COLO205, S.C. fibers, 15 mg/kg i.p. twice-daily", "result": 50, "unit": "%"},
      {"measurement": "% Growth Inhibition", "setting": "COLO205 (Colorectal); COLO205, S.C. fibers, 29 mg/kg i.p. twice-daily", "result": 76, "unit": "%"},
      {"measurement": "% Growth Inhibition", "setting": "COLO205 (Colorectal); COLO205, SC, 29.4 mg/kg i.p. once daily days 3-8", "result": 80.4, "unit": "%"},
      {"measurement": "% Growth Inhibition", "setting": "H23 (Lung); H23, I.P. fibers, 15 mg/kg i.p. twice-daily", "result": 36, "unit": "%"},
      {"measurement": "% Growth Inhibition", "setting": "H23 (Lung); H23, I.P. fibers, 29 mg/kg i.p. twice-daily", "result": 47, "unit": "%"},
      {"measurement": "% Growth Inhibition", "setting": "H23 (Lung); H23, S.C. fibers, 15 mg/kg i.p. twice-daily", "result": 13, "unit": "%"},
      {"measurement": "% Growth Inhibition", "setting": "H23 (Lung); H23, S.C. fibers, 29 mg/kg i.p. twice-daily", "result": 27, "unit": "%"},
      {"measurement": "% Growth Inhibition", "setting": "MCF-7 (Breast); MCF-7, I.P. fibers, 15 mg/kg i.p. twice-daily", "result": 97, "unit": "%"},
      {"measurement": "% Growth Inhibition", "setting": "MCF-7 (Breast); MCF-7, I.P. fibers, 29 mg/kg i.p. twice-daily", "result": 124, "unit": "%"},
      {"measurement": "% Growth Inhibition", "setting": "MCF-7 (Breast); MCF-7, IP, 29.4 mg/kg i.p. once daily days 3-8", "result": 150.2, "unit": "%"},
      {"measurement": "% Growth Inhibition", "setting": "MCF-7 (Breast); MCF-7, S.C. fibers, 15 mg/kg i.p. twice-daily", "result": 83, "unit": "%"},
      {"measurement": "% Growth Inhibition", "setting": "MCF-7 (Breast); MCF-7, S.C. fibers, 29 mg/kg i.p. twice-daily", "result": 107, "unit": "%"},
      {"measurement": "% Growth Inhibition", "setting": "MCF-7 (Breast); MCF-7, SC, 29.4 mg/kg i.p. once daily days 3-8", "result": 116.1, "unit": "%"},
      {"measurement": "percent growth inhibition (text summary of Tables 6-8)", "setting": "MCF-7 (Breast); MCF-7, above 100% indicates lethality for cancerous cells", "result": "above 100%"},
      {"measurement": "% Growth Inhibition", "setting": "MDA-231 (Breast); MDA-231, I.P. fibers, 15 mg/kg i.p. twice-daily", "result": 93, "unit": "%"},
      {"measurement": "% Growth Inhibition", "setting": "MDA-231 (Breast); MDA-231, I.P. fibers, 29 mg/kg i.p. twice-daily", "result": 108, "unit": "%"},
      {"measurement": "% Growth Inhibition", "setting": "MDA-231 (Breast); MDA-231, S.C. fibers, 15 mg/kg i.p. twice-daily", "result": 79, "unit": "%"},
      {"measurement": "% Growth Inhibition", "setting": "MDA-231 (Breast); MDA-231, S.C. fibers, 29 mg/kg i.p. twice-daily", "result": 113, "unit": "%"},
      {"measurement": "percent growth inhibition (text summary of Tables 6-8)", "setting": "MDA-231 (Breast); MDA-231, above 100% indicates lethality for cancerous cells", "result": "above 100%"},
      {"measurement": "% Growth Inhibition", "setting": "PC3 (Prostate); PC3, IP", "result": 71.6, "unit": "%"},
      {"measurement": "% Growth Inhibition", "setting": "PC3 (Prostate); PC3, SC", "result": 52.9, "unit": "%"},
      {"measurement": "percent growth inhibition (text summary of Tables 6-8)", "setting": "PC3 (Prostate); PC-3 (prostate)", "result": "Significant percent growth inhibition"}
    ]}
  ]
}
